The text below walks through data of US12304912B2, “Fused bicyclic RAF inhibitors and methods for use thereof” (Jazz Pharmaceuticals Ireland Limited, priority 2020, dated 2025).

In series [1] the test system is BRAF monomers in A375 cells. As to the kind of experiment: A375 AlphaLISA SureFire pERK1/2 cellular assay (monomer). The note with it: Homo sapiens, read-out: pERK A375 (1 hr) pIC50 (converted). It is filed as cell-based. The essentials: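 BRAF^V600E A375 melanoma cells seeded at 30,000/well in DMEM with 10% FBS, dosed without medium exchange in a 10-point series from 10 μM at 1/2-log steps, 1 h at 37 °C. Phospho-ERK1/2 (Thr202/Tyr204) measured in lysates by AlphaLISA SureFire; absolute IC50 relative to DMSO control.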
Background: Alpha assays give light when donor and acceptor beads are brought close together.

Series [2] deals with constitutive ERK phosphorylation in WiDr cells. Put plainly: WiDr AlphaLISA SureFire pERK1/2 cellular assay. The note with it: Homo sapiens, read-out: pERK WiDr (2 hr) Abs pIC50 (converted). It is filed as cell-based, human.
The nature of series [3]: Microsomal stability assay, human liver microsomes (HLM). It is filed as in vitro ADME. Particulars: 0.5 mg/mL protein, 1 μM substrate, 37° C. In a few lines: (§1)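 Substrate depletion: 1 μM compound incubated at 37° C. with cryopreserved mouse or human liver microsomes at 0.5 mg·mL^−1 protein. Timed aliquots quenched in ice-cold organic solvent and measured by LC-MS/MS; t1/2 and CLint derived from the slope of ln % remaining versus time.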
A general note: Liver microsomes are a subcellular fraction often used to study metabolism.

The nature of series [4]: Microsomal stability assay, mouse liver microsomes (MLM). It is filed as in vitro ADME. The note with it: 0.5 mg/mL protein, 1 μM substrate, 37° C. The essentials: as §1
Series [5] is described as follows: Plasma protein binding assay, mouse plasma (mPPB). Particulars: 5 μM, equilibrium dialysis 4 hours at 37° C. The series is classed as in vitro ADME. The essentials:
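Equilibrium dialysis of 5 μM compound in previously frozen human or mouse plasma against phosphate buffer, 4 h at 37 °C. Both chambers quantified by LC-MS/MS; % free = (1−((PC−PF)/PC))×100.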
For orientation: In equilibrium dialysis free small molecules cross a membrane that holds back macromolecules.

Where two headings read alike, the source gives them in different places. Bounds are passed on as bounds.

Turning to `CN1CCN(CC(=O)Nc2cc(Oc3ccc4c(c3)CC(c3nc(-c5ccccc5)c[nH]3)CO4)ccn2)CC1` (stereo not drawn) [Compound 146, 2-(4-methylpiperazin-1-yl)-N-[4-[3-(4-phenyl-1H-imidazol-2-yl)chroman-6-yl]oxy-2-pyridyl]acetamide], the IC50 is 372 nM in series [1] (A-375, A375 cells, 1 hr) and 398 nM in series [2] (WiDr cells, 2 hr, Abs). Besides, the microsomal CLint (in general, the rate of metabolic loss divided by the concentration) at 1 μM in series [3] is 33.4 µL/min/mg; in series [4] it was 89.7 µL/min/mg. In series [5], the “mPPB (% free)” value was found to be 0.7 % free.
The corresponding values for `CN1CCC(C(=O)Nc2cc(Oc3ccc4c(c3)CC(c3nc(-c5ccccc5)c[nH]3)CO4)ccn2)CC1` (stereo not drawn) [Compound 147, 1-methyl-N-[4-[3-(4-phenyl-1H-imidazol-2-yl)chroman-6-yl]oxy-2-pyridyl]piperidine-4-carboxamide] are 631 nM, 871 nM, 10.4 µL/min/mg, 102 µL/min/mg and 0.8 % free.
On the same counts, the results for `O=C(Nc1nccc(Oc2ccc3c(c2)CC(c2nc(-c4ccccc4)c[nH]2)CO3)n1)C1CC1` (stereo not drawn) [Compound 148, N-[4-[3-(4-phenyl-1H-imidazol-2-yl)chroman-6-yl]oxypyrimidin-2-yl]cyclopropanecarboxamide] are 1230 nM, 871 nM, 132 µL/min/mg, 211 µL/min/mg and 0.4 % free.
On the same counts, the results for `O=C(CN1CCOCC1)Nc1cc(Oc2ccc3c(c2)CC(c2nc(-c4ccccc4)c[nH]2)CO3)ccn1` (stereo not drawn) [Compound 149] are 1320 nM, 933 nM, 63.7 µL/min/mg, 231 µL/min/mg and 0.14 % free.
`O=C(Nc1cc(Oc2ccc3c(c2)CC(c2nc(-c4ccccc4)c[nH]2)CO3)ncn1)C1CC1` (stereo not drawn) [Compound 151, N-[6-[3-(4-phenyl-1H-imidazol-2-yl)chroman-6-yl]oxypyrimidin-4-yl]cyclopropanecarboxamide]: the IC50 in series [1] (A-375, 1 h) was 347 nM; in series [2] (WiDr, 2 h), 224 nM. In addition, the values for the microsomal CLint at 1 μM in series [3] and in series [4] were 18.3 µL/min/mg and 161 µL/min/mg, respectively. The “mPPB (% free)” value in series [5] is reported as less than 0.1 % free.
`O=C(CN1CCCC1)Nc1cc(Oc2ccc3c(c2)CC(c2nc(-c4ccccc4)c[nH]2)CO3)ccn1` (stereo not drawn) [Compound 152]: the IC50 was 603 nM in series [1] (A-375, A375 cells, 1 hr) and 219 nM in series [2] (WiDr cells, 2 hr, Abs). Moreover, the intrinsic metabolic clearance (microsomal CLint) at 1 μM in series [3] was found to be 29 µL/min/mg; in series [4], 259 µL/min/mg. The “mPPB (% free)” value in series [5] came to 0.47 % free.
On to `O=C(CN1CC(O)C1)Nc1cc(Oc2ccc3c(c2)CC(c2nc(-c4ccccc4)c[nH]2)CO3)ccn1` (stereo not drawn) [Compound 153], for which the IC50 in series [1] (A-375, A375 cells, 1 hr) is 501 nM; in series [2] (WiDr cells, 2 hr, Abs), 288 nM. The microsomal CLint at 1 μM in series [3] is 19.2 µL/min/mg; in series [4], 92.9 µL/min/mg. Besides, the “mPPB (% free)” value in series [5] is recorded as 0.6 % free.
The corresponding values for `O=C(Cn1cncn1)Nc1cc(Oc2ccc3c(c2)CC(c2nc(-c4ccccc4)c[nH]2)CO3)ccn1` (stereo not drawn) [Compound 154] are 97.7 nM, 33.1 nM, 22.8 µL/min/mg, 95.2 µL/min/mg and 0.7 % free.
In the case of `O=C(Nc1cc(Oc2ccc3c(c2)CC(c2nc(-c4ccc(F)cc4)c[nH]2)CO3)ccn1)C1CC1` (stereo not drawn) [Compound 155, N-[4-[3-[4-(4-fluorophenyl)-1H-imidazol-2-yl]chroman-6-yl]oxy-2-pyridyl]cyclopropanecarboxamide], the IC50 in series [1] (A-375, A375 cells, 1 hr) was 117 nM; in series [2] (WiDr cells, 2 hr, Abs), 102 nM. Further, the microsomal CLint at 1 μM in series [3] amounted to 28.9 µL/min/mg. Further, the “MLM (CLint)” value in series [4] worked out at 277 µL/min/mg. Moreover, in series [5], the “mPPB (% free)” value was found to be 0.1 % free.
Regarding `CC(=O)Nc1cc(Oc2ccc3c(c2)CC(c2nc(-c4ccccc4)c[nH]2)CO3)ccn1` (stereo not drawn) [Compound 156, N-[4-[3-(4-phenyl-1H-imidazol-2-yl)chroman-6-yl]oxy-2-pyridyl]acetamide], the IC50 in series [1] (A-375, A375 cells, 1 hr) is 178 nM; in series [2] (WiDr cells, 2 hr, Abs), 132 nM. Also, the results for the microsomal CLint at 1 μM in series [3] and in series [4] were 30.3 µL/min/mg and 152 µL/min/mg, respectively. Further, the “mPPB (% free)” value in series [5] is 0.4 % free.
With `CC1CC1C(=O)Nc1cc(Oc2ccc3c(c2)CC(c2nc(-c4ccccc4)c[nH]2)CO3)ccn1` (stereo not drawn) [Compound 157], the IC50 in series [1] (A-375, A375 cells, 1 hr) is 525 nM; in series [2] (WiDr cells, 2 hr, Abs), 275 nM. Also, in series [3], the microsomal CLint at 1 μM is 35.7 µL/min/mg. Besides, the “MLM (CLint)” value in series [4] amounted to 277 µL/min/mg. Besides, in series [5], the “mPPB (% free)” value is recorded as less than 0.1 % free.
Regarding `O=C1CCc2c(Oc3ccc4c(c3)CN(c3nc5cc(C(F)(F)F)ccc5[nH]3)CC4)ccnc2N1` [Compound 160], the IC50 in series [1] (A-375, A375 cells, 1 hr) is 871 nM; in series [2] (WiDr cells, 2 hr, Abs), 219 nM. The microsomal CLint at 1 μM in series [3] is 2.7 µL/min/mg; in series [4], 4.5 µL/min/mg. Besides, in series [5], the “mPPB (% free)” value was less than 0.1 % free.
